# Literature values, collected in patent US6942970B2, “Identifying subjects suitable for topoisomerase II inhibitor treatment” (Zymed Laboratories, Inc., priority 2000, dated 2005).
# Test system: advanced breast cancer
# Settings: first-line chemotherapy, advanced breast cancer patients
smiles,measurement,value
COc1cccc2c1C(=O)c1c(O)c3c(c(O)c1C2=O)C[C@@](O)(C(=O)CO)C[C@@H]3O[C@H]1C[C@H](N)[C@@H](O)[C@H](C)O1 [epirubicin],response rate (CR+PR),48%
